Molecular target: Arf-GAP with SH3 domain, ANK repeat and PH domain-containing protein 1 (Homo sapiens, UniProt Q9ULH1)
Sequence (Q9ULH1 whole entry, the tested form may be a part): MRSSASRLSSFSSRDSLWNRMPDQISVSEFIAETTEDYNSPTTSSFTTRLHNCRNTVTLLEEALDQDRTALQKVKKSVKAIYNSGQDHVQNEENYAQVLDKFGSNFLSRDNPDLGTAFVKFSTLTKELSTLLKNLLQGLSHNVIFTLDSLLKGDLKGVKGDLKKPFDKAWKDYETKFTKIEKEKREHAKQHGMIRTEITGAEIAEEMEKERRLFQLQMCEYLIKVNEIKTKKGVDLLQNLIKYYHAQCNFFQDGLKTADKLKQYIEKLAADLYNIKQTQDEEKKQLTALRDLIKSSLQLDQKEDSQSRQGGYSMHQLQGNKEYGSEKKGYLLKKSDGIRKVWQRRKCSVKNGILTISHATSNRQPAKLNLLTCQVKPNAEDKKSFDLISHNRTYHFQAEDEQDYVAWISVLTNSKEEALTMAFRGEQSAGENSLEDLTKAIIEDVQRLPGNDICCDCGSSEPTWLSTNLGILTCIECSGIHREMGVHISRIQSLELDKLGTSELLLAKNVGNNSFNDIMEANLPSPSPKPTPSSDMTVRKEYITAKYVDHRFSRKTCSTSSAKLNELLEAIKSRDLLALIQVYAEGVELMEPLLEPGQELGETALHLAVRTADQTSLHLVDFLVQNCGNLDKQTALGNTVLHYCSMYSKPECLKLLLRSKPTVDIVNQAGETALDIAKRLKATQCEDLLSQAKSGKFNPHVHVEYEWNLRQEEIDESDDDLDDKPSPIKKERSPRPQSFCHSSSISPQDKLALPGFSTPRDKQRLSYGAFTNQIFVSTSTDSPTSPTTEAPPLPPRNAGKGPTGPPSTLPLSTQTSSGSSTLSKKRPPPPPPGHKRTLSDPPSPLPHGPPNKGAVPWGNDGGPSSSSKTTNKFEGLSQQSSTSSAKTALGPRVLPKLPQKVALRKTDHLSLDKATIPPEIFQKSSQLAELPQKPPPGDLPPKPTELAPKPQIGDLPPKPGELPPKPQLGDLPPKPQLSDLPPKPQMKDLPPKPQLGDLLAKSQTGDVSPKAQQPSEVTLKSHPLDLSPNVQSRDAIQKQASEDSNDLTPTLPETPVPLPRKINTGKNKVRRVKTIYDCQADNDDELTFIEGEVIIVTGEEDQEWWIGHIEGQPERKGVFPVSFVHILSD

With `O=C(Nc1cccc(-c2csc(Nc3ccc(Cl)cc3)n2)c1)c1ccccc1` as the compound, how does the IC50 read?
The IC50 was > 165 µM.
